This is an account of results in BindingDB's records for doi:10.1039/d3md00036b (n/a, 2023).

The test addresses Metallo-beta-lactamase type 2 (Klebsiella pneumoniae, UniProt C7C422). The test can be described thus: Binding affinity to bacterial NDM-1 (unknown origin) assessed as inhibition constant.

Sequence of Metallo-beta-lactamase type 2 (C7C422 whole entry): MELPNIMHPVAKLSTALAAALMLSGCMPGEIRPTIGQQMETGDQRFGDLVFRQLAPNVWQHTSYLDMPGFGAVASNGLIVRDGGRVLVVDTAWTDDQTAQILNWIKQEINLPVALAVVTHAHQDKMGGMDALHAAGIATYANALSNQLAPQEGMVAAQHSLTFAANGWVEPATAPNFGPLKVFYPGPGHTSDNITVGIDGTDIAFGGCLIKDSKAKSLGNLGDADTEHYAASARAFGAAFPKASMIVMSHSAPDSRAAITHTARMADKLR

For `CN1CCN(C(=S)N/N=C/c2ccccc2O)CC1`, the inhibition constant (Ki) stood at 0.44 nM.

The term Ki denotes the dissociation constant of the complex between target and ligand, obtained from inhibition or displacement.
